From patent US5952326A, “Tetralin and chroman derivatives useful in the treatment of asthma, arthritis and related diseases” (Pfizer Inc., priority 1997, dated 1999)

System: PAF (platelet activating factor) lethality
Assay: PAF lethality assay procedure
Assay type: in vivo, mice (CD1 males)
Conditions: Mus musculus, po, positive control, mice treated orally 45 minutes before i.v. PAF injection, approximate
Procedure: To evaluate the compounds of the formula (I) in vivo, they are tested by the so-called PAF lethality assay procedure:
Mice: CD1 males, all approximately the same weight (approximately 26 grams), 12 per group.
Vehicle for oral drug dosing: EES (5% ethanol, 5% emulphor, 90% saline). Stored at room temperature.
Drugs: For routine screening at 50 mg/kg, 20 mg drug is dissolved in 4 ml EES, using sonication in a sonicator bath or grinding in a Ten Broeck grinder to dissolve drug if necessary. If solubility is still a problem, the drug is used as a suspension.
Vehicle for i.v. Injection: Saline with 2.5 mg/ml Bovine Serum Albumin (BSA, Sigma #A4378) and 0.05 mg/ml Propranolol (Sigma #P0884). Prepared fresh daily and kept at room temperature.
Platelet Activating Factor (PAF): A 10 microm stock solution is prepared by dissolving 1 mg PAF (Calbiochem #429460) in 0.18 ml ethanol. This is stored at -20° C. and is diluted in vehicle (see above) the day of use. The concentration of PAF used is calibrated so that when injected at 0.1 ml/10 grams body weight, it will kill approximately 80% of untreated controls. This is usually about […] (a 1 to 2034 dilution from stock). […]
45 minutes before PAF injection, mice are treated orally with drug using 0.1 ml/10 grams body weight. […] Results are expressed as percent mortality as compared to controls. […]

`O=C1CCN(c2ccccc2)N1` [Phenidone] gave an ED50 of roughly 25 mg/kg.
